Experimental data taken from BindingDB's records for patent US10435400 (Shanghai Haiyan Pharmaceutical Technology, 2019).
pIC50: −log10 of the molar value.

Molecular target: Epidermal growth factor receptor (Homo sapiens, UniProt P00533)
Test: Wild Type EGFR and Mutant EGFR Kinase Inhibition Test
Procedure: After the compounds (i.e., test compounds) prepared by the above-mentioned examples described herein were added, the concentration of DMSO was 2%.The working concentration of each component in 10 μl EGFR WT kinase reaction system was: 10 μM ATP, 0.8 ng/μl EGFR WT kinase, 2 μM Tyr04 substrate.

Epidermal growth factor receptor, sequence (P00533 whole entry): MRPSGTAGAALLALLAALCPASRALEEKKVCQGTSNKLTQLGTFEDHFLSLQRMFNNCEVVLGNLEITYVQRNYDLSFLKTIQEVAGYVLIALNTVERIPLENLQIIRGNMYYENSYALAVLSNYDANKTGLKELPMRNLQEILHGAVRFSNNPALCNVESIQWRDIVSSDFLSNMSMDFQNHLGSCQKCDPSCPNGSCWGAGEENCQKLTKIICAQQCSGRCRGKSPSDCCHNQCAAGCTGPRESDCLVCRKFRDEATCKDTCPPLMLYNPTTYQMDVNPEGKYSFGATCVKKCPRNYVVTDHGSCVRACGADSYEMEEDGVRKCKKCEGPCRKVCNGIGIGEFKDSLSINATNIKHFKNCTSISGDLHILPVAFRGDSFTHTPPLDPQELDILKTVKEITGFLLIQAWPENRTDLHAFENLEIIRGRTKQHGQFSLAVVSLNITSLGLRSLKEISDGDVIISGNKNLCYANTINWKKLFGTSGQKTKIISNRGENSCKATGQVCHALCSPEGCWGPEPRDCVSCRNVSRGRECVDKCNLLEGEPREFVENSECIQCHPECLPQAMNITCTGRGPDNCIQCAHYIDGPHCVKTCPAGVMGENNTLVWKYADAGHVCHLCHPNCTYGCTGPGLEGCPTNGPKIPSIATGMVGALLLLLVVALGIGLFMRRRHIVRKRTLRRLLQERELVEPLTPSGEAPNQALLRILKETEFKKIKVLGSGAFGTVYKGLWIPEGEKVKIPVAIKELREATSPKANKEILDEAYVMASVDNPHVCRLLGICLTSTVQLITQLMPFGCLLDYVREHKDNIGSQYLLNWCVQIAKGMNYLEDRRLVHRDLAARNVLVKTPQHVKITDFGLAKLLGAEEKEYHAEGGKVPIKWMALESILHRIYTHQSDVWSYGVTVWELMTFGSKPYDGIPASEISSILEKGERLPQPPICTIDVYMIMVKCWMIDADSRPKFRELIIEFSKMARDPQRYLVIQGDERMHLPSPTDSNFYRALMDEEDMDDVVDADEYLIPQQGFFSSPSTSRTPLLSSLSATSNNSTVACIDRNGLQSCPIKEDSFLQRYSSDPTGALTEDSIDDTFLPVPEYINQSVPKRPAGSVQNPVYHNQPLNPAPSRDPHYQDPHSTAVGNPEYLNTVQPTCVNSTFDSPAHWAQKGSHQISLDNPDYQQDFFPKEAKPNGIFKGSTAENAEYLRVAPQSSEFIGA

**Q.** `C=CC(=O)Nc1cc(Nc2ncc(Cl)c(-c3cnc4c(ccn4C)c3)n2)c(OC)cc1N1CCC(N(C)C)CC1` [US10435400, Compound Z-2] was tested. Which pIC50 did it give?
**A.** The pIC50 was 6.57.
